pIC50: −log10 of the molar value. Like-named read-outs stand apart in the source and are kept apart here.
How the values were obtained:
kinases = experiment: KinomeScan selectivity scores / number of hits; assay type: binding
Experimental: These assays may be conducted by DiscoverX (formerly Ambit; San Diego, Calif.). The percentage inhibition produced by incubation with a test compound may be calculated relative to the non-inhibited control.

primary macrophages = experiment: (e) LPS-induced cytokine release in primary macrophages; assay type: cell-based; conditions: Homo sapiens, Primary macrophage, assay (e)
Experimental: PBMCs from healthy subjects are separated from whole blood using a density gradient (Lymphoprep, Axis-Shield Healthcare). Cells are incubated for 2 hrs and non-adherent cells removed by washing. To differentiate the cells to macrophages the cells are incubated with 5 ng/ml of GM-CSF (Peprotech) for 7 days under normal tissue culture conditions. Compounds are then added to the cells at the desired concentration for a 2 hour pre-treatment before stimulation with 10 ng/ml LPS for 24 hours. […] The IC50 is determined from the dose response curve.

[1] = Pharmacokinetics and colon distribution in mice; assay type: in vivo, male C57BL/6 mice; conditions: male, 5 mg/kg p.o.; for concentration at 1 h / concentration at 2 h / concentration at 4 h / concentration at 6 h / concentration at 8 h / concentration at 12 h / concentration at 24 h: po, mouse
Experimental: Blood samples (approximately 60 μL) were collected from retro orbital plexus such that the samples were obtained at 1, 2, 4, 6, 8, 12 and 24 hr. The blood samples were collected from a set of three mice at each time point in labelled micro centrifuge tube containing K2EDTA as anticoagulant. Plasma samples were separated by centrifugation at 4000 rpm for 10 min of whole blood and stored below −70° C. until bioanalysis. After collection of blood sample, animals were humanely euthanized by carbon dioxide asphyxiation to collect total colon tissues. The colons were flushed with cold phosphate buffer saline (pH 7.4) to remove contents. The total colon tissues were homogenized with cold phosphate buffer saline (pH 7.4) of twice the weight of colon tissue and stored below −70° C. Total volume was three times the total colon tissue weights. All samples were processed for analysis by protein precipitation using acetonitrile and analyzed with developed LC-MS/MS method (LLOQ: 2.02 ng/mL in plasma and 1.01 ng/mL in colon tissue). Pharmacokinetic parameters were calculated using the non-compartmental analysis tool of Phoenix WinNonlin® software (version 6.3).

[2] = Cryopreserved hepatocyte stability, dog; assay type: in vitro ADME; conditions: pooled cryopreserved hepatocytes, read-out: Mean intrinsic clearance
Experimental: Formulae Clint(tissue clearance) mL/min/kg=[0.693/t½ (min)]×[1/microsomal protein concentration mg/mL]×[mg microsomes/g liver]×[g liver/kg body weight] […] The incubations were performed at 37° C. with 100 μL, samples taken from the incubation, at 0, 10, 20, 45 and 90 minutes, and reactions terminated by addition of 100 μL of acetonitrile containing carbamazepine as analytical internal standard. […] Half-life values were calculated from the relationship T1/2 (min)=−0.693/λ • where λ was the slope of the Ln concentration vs time curve. • Standard compounds testosterone, midazolam and 4-methylumbelliferone are included in the assay design.
Clint(Tissue Clearance) mL/min/kg=[0.693/t½(min)]×[1/hepatocyte concentration (million cells/mL)]×[million cells/g liver]×[g liver/kg body weight] Clint(Hepatic clearance) mL/min/kg=hepatic blood flow×Clint/(hepatic blood flow+Clint) Hepatic extraction ratio(Eh)=Clint(Hepatic clearance) mL/min/kg/hepatic blood flow (mL/min/kg)

CYP2C9 = CYP2C9 (Homo sapiens (Human), UniProt P11712); experiment: CYP450 time-dependent inhibition, CYP2C9; assay type: in vitro ADME
Experimental: CYP450 time-dependent inhibition (TDI) assays were performed with test compound at six test concentrations, 0.062 μM to 15 μM (n=2). The test compounds was pre-incubated for 30 minutes with pooled human hepatic microsomes in 0.1 M Tris buffer, pH 7.4, at 37° C. in the presence of cofactor NADPH. A parallel series of incubations (n=2) were prepared with no pre-incubation. Probe substrates were then added (with additional cofactor) and further incubated for the times specified. Concentrations of probe substrates used in the incubations have been optimised to maintain first order reaction conditions.
Reactions were terminated with acetonitrile containing analytical internal standard (carbamazepine), samples then centrifuged to remove microsomal protein and analysed using optimised LC/MS-MS conditions. The MS data were normalised to internal standard and compared to the appropriate solvent controls to determine the amount of metabolite formed from the probe substrate relative to the “uninhibited” controls. The results are quoted as % inhibition.
Variation in probe turnover between plate wells means that inhibition values recorded below 10-15% may not be significant.

[3] = C57BL/6, colon, read-out: Mean concentration, Colon
[4] = C57BL/6, plasma, read-out: Mean concentration, Plasma
[5] = C57BL/6, po, Mouse, Total colon

Sequence of CYP2C9 (P11712 whole entry): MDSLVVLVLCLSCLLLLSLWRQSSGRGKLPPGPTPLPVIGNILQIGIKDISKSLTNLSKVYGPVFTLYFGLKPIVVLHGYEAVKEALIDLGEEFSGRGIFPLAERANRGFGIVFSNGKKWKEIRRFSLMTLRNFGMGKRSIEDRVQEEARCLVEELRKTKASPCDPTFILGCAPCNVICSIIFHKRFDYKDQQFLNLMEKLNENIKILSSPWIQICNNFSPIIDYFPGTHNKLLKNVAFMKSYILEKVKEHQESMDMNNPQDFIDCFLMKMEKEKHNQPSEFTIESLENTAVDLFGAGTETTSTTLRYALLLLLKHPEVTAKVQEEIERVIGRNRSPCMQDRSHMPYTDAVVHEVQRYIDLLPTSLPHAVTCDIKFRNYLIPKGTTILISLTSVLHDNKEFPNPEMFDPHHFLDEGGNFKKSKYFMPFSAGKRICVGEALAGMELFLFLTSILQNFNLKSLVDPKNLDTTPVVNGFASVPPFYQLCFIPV

C#Cc1cc(Nc2nccc(Oc3ccc(NC(=O)Nc4cc(C(C)(C)C)nn4-c4ccc(C)cc4)c4ccccc34)n2)cc(C(=O)NCCOCCOCCOC)c1 [Example 2, 3-((4-((4-(3-(3-(tert-Butyl)-1-(p-tolyl)-1H-pyrazol-5-yl)ureido)naphthalen-1-yl)oxy)pyrimidin-2-yl)amino)-5-ethynyl-N-(2-(2-(2-methoxyethoxy)ethoxy)ethyl)-benzamide]
KinomeScan S(1) number of hits (kinases; 50 nM): 0
KinomeScan S(10) number of hits (kinases; 50 nM): 8
KinomeScan S(35) number of hits (kinases; 50 nM): 32
KinomeScan S(1) number of hits (kinases; 500 nM): 4
KinomeScan S(10) number of hits (kinases; 500 nM): 39
KinomeScan S(35) number of hits (kinases; 500 nM): 92
pIC50 (primary macrophages; read-out: IC50 for inhibition of release of IL-6): 8.55
pIC50 (primary macrophages; read-out: IC50 for inhibition of release of IL-8): 8.68
concentration at 1 h [1, 3]: 884 ng/g
concentration at 2 h [1, 3]: 2810 ng/g
concentration at 4 h [1, 3]: 4240 ng/g
concentration at 6 h [1, 3]: 1400 ng/g
concentration at 8 h [1, 3]: 13700 ng/g
concentration at 12 h [1, 3]: 7490 ng/g
concentration at 24 h [1, 3]: 31.6 ng/g
concentration at 1 h [1, 4]: 11.7 ng/mL
concentration at 2 h [1, 4]: 8.5 ng/mL
concentration at 4 h [1, 4]: 5.1 ng/mL
concentration at 6 h [1, 4]: 4.55 ng/mL
concentration at 8 h [1, 4]: 5.1 ng/mL
concentration at 12 h [1, 4]: 0 ng/mL
concentration at 24 h [1, 4]: 0 ng/mL
AUC(0-t) ([1]; C57BL/6, po, Mouse, Plasma): 0.049 µg·h/mL
Cmax ([1]; C57BL/6, po, Mouse, Plasma): 12 ng/mL
Tmax ([1]; C57BL/6, po, Mouse, Plasma): 1 h
AUC(0-inf) [1, 5]: 118 µg·h/mL
AUC(0-t) [1, 5]: 117 µg·h/mL
Cmax [1, 5]: 13700 ng/mL
Tmax [1, 5]: 8 h
hepatocyte CLint at 0.1 μM [2]: 46 µL/min/1e6 cells
pIC50 (CYP2C9; CYP2C9, 0 min preincubation): < 4.82
pIC50 (CYP2C9; CYP2C9, 30 min preincubation): < 4.82
inhibition at 0 min, 15 µM (CYP2C9; human, pooled human liver microsomes, pH 7.4, CYP2C9, 0 min preincubation, 15 μM, read-out: 15 μM % Inh): 35%
inhibition at 30 min, 15 µM (CYP2C9; human, pooled human liver microsomes, pH 7.4, CYP2C9, 30 min preincubation, 15 μM, read-out: 15 μM % Inh): 37%
